For data set [1] the following is noted: Crystal; DTA.
A short description of data set [2]: Molar enthalpy of transition or fusion. The following applies: Crystal; DSC.

Each structure is given as a SMILES string. ± gives the expanded uncertainty stated by the source.

As to `Clc1ccccc1Cl` [1,2-dichlorobenzene], the Normal melting temperature in data set [1] is -17.30 ± 0.5 °C. Also, the “Molar enthalpy of transition or fusion” value in data set [2] was determined as 13.1 ± 0.33 kJ/mol.

As to `Clc1cccc(Cl)c1` [1,3-dichlorobenzene], the Normal melting temperature in data set [1] is -24.90 ± 0.5 °C. The “Molar enthalpy of transition or fusion” value in data set [2] is 12.5 ± 0.32 kJ/mol.

Consider `Clc1ccc(Cl)cc1` [1,4-dichlorobenzene], for which the Normal melting temperature in data set [1] stood at 53.00 ± 0.5 °C. Besides, in data set [2], the “Molar enthalpy of transition or fusion” value came out at 18.1 ± 0.43 kJ/mol.

Regarding `c1ccc2c(c1)ccc1ccccc12` [phenanthrene], in data set [1], the Normal melting temperature came out at 98.90 ± 0.5 °C. In data set [2], the “Molar enthalpy of transition or fusion” value was found to be 16.7 ± 0.4 kJ/mol.

Values taken from the NIST ThermoML archive (doi:10.1016/j.tca.2008.09.010).
